The term Ki denotes the dissociation constant of the complex between target and ligand, obtained from inhibition or displacement.

A short description of data set [1]: Solubility under the Lck assay conditions. The format is physicochemical. As to conditions: Lck assay buffer conditions.
Data set [2] deals with human Lck kinase (Homo sapiens, UniProt P06239). Description: Lck inhibition assay (spectrophotometric coupled-enzyme assay). The format is biochemical. On the procedure: The compounds are evaluated as inhibitors of human Lck kinase using a spectrophotometric assay.
An assay buffer solution was prepared which consisted of 25 mM HEPES (pH 7.5), 10 mM MgCl2, 250 μM NADH, 3 mM phosphoenolpyruvate, 43 μg/mL pyruvate kinase, 14 μg/mL lactate dehydrogenase, 560 μM ATP and 67 nM Lck. To 60 μL of this solution, in a 96 well plate, was added 2 μL of test compound stock solution in DMSO and the mixture allowed to equilibrate for 10 minutes at 30° C. The enzyme reaction was initiated by the addition of 5 μL 15 mg/mL poly Glu, Tyr (4:1) prepared in 25 mM HEPES (pH 7.5). Final assay concentrations of Lck and ATP are 60 nM and 500 μM respectively. Initial rate data was determined from the rate of change of absorbance at 340 nm (corresponding to stoichiometric consumption of NADH) using a Molecular Devices Spectramax plate reader (Sunnyvale, Calif.) over 10 min at 30° C. For each Ki determination 8 data points covering the test compound concentration range of 0-7.5 μM are obtained in duplicate. Ki values are calculated from initial rate data by non-linear regression using the Prism software package (Prism 4.0a, Graphpad Software, San Diego, Calif.).

Data set [3] has as its target human Src kinase (Homo sapiens, UniProt P12931). Description: Src inhibition assay (spectrophotometric coupled-enzyme assay). The format is biochemical. As to conditions: 25 nM Src, 100 μM ATP, poly Glu,Tyr (4:1), 30° C. On the procedure: The compounds are evaluated as inhibitors of human Src kinase using a spectrophotometric assay.
An assay buffer solution was prepared which consisted of 25 mM HEPES (pH 7.5), 10 mM MgCl2, 250 μM NADH, 3 mM phosphoenolpyruvate, 60 μg/mL pyruvate kinase, 21 μg/mL lactate dehydrogenase, 113 μM ATP and 28 nM Src. To 60 μL of this solution, in a 96 well plate, was added 2 μL of test compound stock solution in DMSO and the mixture allowed to equilibrate for 10 mins at 30° C. The enzyme reaction was initiated by the addition of 5 μL 10 mg/mL poly Glu, Tyr (4:1) prepared in 25 mM HEPES (pH 7.5). Final assay concentrations of Src and ATP were 25 nM and 100 μM respectively. Initial rate data was determined from the rate of change of absorbance at 340 nm (corresponding to stoichiometric consumption of NADH) using a Molecular Devices Spectramax plate reader (Sunnyvale, Calif.) over 10 mins at 30° C. For each Ki determination 8 data points covering the test compound concentration range of 0-7.5 μM were obtained in duplicate. Ki values were calculated from initial rate data by non-linear regression using the Prism software package (Prism 4.0a, Graphpad Software, San Diego, Calif.).

[4] abbreviates: 60 nM Lck, 500 μM ATP, poly Glu,Tyr (4:1), 30° C., read-out: Ki value, inhibition of Lck.

Where two headings read alike, the source gives them in different places.

human Src kinase, sequence (P12931 whole entry): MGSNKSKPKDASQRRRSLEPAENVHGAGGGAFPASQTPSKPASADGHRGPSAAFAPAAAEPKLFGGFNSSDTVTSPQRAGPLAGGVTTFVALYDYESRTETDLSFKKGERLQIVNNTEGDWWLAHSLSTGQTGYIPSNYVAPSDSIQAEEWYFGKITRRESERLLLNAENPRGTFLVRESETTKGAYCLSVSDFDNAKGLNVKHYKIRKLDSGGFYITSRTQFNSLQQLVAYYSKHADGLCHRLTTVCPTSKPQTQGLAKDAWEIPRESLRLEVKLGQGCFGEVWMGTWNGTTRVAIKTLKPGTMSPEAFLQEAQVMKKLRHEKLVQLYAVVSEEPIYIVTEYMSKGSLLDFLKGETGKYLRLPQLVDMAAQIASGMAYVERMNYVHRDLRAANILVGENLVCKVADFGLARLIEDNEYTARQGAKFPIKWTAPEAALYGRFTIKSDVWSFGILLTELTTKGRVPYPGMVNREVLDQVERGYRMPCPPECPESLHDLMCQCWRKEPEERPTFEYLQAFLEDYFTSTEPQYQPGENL
human Lck kinase, sequence (P06239 whole entry): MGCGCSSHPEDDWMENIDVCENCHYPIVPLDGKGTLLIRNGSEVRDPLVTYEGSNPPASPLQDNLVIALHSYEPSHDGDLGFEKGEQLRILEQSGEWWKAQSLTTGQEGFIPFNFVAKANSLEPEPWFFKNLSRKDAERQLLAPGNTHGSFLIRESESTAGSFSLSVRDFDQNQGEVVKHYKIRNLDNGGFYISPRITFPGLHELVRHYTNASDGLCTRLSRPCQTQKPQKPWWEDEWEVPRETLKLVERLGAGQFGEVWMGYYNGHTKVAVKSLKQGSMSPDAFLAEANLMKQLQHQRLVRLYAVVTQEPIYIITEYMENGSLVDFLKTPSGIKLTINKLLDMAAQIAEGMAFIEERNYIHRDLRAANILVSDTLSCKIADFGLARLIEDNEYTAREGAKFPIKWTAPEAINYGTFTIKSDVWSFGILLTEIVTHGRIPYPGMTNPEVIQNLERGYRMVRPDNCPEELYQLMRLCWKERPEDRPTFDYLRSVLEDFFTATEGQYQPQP

For the compound `NC(=O)c1sc(C2CCCCC2)nc1-c1ccc(Oc2ccccc2)cc1` [Compound I-4], the “solubility under the assay conditions” value in data set [1] is “relatively low”. In addition, the inhibition constant (Ki) is under 1000 nM in data set [2] (read-out: Ki value, inhibition of Lck (expected)) and over 1000 nM in data set [3].
For the compound `NC(=O)c1[nH]c(C2CCCC2)nc1-c1ccc(Oc2ccccc2)cc1` [Compound I-1], the inhibitory constant (Ki) in data set [2] (setting [4]) is under 100 nM; in data set [3], 100 to 500 nM.
As to `NC(=O)c1sc(C2CCCC2)nc1-c1ccc(Oc2ccccc2)cc1` [Compound I-3, 2-Cyclopentyl-4-(4-phenoxyphenyl)thiazole-5-carboxamide], the inhibition constant (Ki) is 100 to 500 nM in data set [2] (setting [4]) and over 1000 nM in data set [3].
On the same counts, the results for `NC(=O)c1cn(C2CCCC2)nc1-c1ccc(Oc2ccccc2)cc1` [Compound I-2, 1-Cyclopentyl-3-(4-phenoxyphenyl)-1H-pyrazole-4-carboxamide] are 100 to 500 nM and over 1000 nM.

The record behind these values is patent US8865751B2, “Thiazoles, imidazoles, and pyrazoles useful as inhibitors of protein kinases” (Vertex Pharmaceuticals Incorporated, priority 2006, dated 2014).
